Reference: ChEMBL document CHEMBL5465560, “Selectivity Literature for EUbOPEN Chemogenomic Library” (2024)

How the values were obtained:
[1] = target: T1, Mitogen-activated protein kinase kinase kinase kinase 3 (Homo sapiens) (UniProt Q8IVH8); assay: Selectivity interaction (KinomeScan (DiscoverX)) EUB0001079a MAP4K3; conditions: at 1 µM
T1 sequence (whole entry): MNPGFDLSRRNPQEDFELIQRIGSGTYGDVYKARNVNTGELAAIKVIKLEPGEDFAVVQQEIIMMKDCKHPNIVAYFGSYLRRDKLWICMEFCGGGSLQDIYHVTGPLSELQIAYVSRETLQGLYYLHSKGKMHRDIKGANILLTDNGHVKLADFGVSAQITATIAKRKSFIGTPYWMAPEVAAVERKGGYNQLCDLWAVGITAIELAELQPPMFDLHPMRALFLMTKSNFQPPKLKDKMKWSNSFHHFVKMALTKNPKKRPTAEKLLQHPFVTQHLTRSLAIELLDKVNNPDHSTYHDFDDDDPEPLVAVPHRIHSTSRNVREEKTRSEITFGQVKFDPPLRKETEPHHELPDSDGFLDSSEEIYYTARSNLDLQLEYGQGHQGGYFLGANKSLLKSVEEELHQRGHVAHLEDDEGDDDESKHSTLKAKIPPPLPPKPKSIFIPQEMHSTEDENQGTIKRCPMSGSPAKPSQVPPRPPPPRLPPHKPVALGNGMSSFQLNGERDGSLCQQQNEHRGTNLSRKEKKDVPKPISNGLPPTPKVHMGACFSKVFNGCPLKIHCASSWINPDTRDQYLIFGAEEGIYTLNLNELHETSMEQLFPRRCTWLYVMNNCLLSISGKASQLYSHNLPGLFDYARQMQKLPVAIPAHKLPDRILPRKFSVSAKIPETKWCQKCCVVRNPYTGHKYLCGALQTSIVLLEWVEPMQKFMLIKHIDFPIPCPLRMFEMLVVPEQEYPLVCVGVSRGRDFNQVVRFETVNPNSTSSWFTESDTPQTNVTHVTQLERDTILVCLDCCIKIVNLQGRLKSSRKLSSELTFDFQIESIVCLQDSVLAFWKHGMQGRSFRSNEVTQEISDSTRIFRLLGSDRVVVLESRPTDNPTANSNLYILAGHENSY

[2] = target: Bromodomain-containing protein 4 (Homo sapiens, UniProt O60885); assay: Selectivity interaction (Human bromodomain panel (DSF assay)) EUB0000233b BRD4
[3] = target: Serine/threonine-protein kinase PLK1 (Homo sapiens, UniProt P53350)
[4] = target: T2, Mitogen-activated protein kinase 13 (Homo sapiens) (UniProt O15264); assay: Selectivity interaction (ActivX KiNativ screen (kinase selectivity in THP-1 cell lysates)) EUB0000639a MAPK13; assay type: subcellular; conditions: lysate
T2 sequence (whole entry): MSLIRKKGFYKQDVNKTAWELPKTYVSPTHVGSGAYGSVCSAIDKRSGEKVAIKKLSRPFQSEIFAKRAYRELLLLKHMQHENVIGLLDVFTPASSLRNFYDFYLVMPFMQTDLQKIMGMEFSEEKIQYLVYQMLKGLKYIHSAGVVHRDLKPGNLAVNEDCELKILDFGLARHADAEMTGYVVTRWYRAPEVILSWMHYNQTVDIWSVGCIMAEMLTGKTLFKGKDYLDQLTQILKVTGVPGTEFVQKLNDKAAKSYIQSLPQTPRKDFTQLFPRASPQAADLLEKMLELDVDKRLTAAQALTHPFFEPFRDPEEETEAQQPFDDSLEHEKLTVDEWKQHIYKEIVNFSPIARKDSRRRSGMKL

[5] = target: Myosin-IIIa (Homo sapiens) (UniProt Q8NEV4); assay: Selectivity interaction (KinomeScan (DiscoverX)) EUB0000045b MYO3A
[6] = target: Serine/threonine-protein kinase MRCK alpha (Homo sapiens) (UniProt Q5VT25); assay: Selectivity interaction (KinomeScan (DiscoverX)) EUB0000618a CDC42BPA; conditions: at 10 µM
[7] = target: T3, Ephrin type-B receptor 1 (Homo sapiens) (UniProt P54762); assay: Selectivity interaction (KinomeScan (DiscoverX)) EUB0001619a EPHB1; conditions: at 1 µM
T3 sequence (whole entry): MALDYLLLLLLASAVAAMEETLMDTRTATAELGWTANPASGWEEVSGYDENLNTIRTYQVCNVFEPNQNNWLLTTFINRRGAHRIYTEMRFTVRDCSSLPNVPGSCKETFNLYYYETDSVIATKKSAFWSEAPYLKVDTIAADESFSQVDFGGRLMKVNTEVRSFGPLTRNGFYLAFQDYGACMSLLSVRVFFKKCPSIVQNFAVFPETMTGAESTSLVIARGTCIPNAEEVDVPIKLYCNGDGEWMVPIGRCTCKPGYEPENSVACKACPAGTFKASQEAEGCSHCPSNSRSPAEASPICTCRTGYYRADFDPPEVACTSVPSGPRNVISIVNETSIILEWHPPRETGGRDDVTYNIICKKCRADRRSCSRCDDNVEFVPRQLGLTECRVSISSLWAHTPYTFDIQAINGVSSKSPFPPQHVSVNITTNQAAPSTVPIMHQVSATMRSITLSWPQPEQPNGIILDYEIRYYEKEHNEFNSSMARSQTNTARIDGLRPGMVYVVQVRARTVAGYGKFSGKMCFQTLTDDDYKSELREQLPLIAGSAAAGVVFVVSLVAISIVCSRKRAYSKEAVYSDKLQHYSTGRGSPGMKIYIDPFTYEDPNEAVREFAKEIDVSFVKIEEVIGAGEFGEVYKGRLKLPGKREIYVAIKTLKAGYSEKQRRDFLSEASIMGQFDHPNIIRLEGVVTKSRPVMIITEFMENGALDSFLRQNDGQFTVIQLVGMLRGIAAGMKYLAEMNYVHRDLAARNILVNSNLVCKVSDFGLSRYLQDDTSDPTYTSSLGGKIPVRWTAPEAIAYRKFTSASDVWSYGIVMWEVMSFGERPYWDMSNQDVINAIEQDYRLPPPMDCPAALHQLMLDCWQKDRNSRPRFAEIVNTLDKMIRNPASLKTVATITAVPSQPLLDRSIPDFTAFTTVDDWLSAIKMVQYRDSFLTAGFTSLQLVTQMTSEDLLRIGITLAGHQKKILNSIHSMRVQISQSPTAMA

[8] = target: Tyrosine-protein kinase Yes (Homo sapiens) (UniProt P07947); assay: Selectivity interaction (KinomeScan (DiscoverX)) EUB0001619a YES1; conditions: at 1 µM
Chain of Tyrosine-protein kinase Yes (Homo sapiens) (P07947 2-543 limits assumed): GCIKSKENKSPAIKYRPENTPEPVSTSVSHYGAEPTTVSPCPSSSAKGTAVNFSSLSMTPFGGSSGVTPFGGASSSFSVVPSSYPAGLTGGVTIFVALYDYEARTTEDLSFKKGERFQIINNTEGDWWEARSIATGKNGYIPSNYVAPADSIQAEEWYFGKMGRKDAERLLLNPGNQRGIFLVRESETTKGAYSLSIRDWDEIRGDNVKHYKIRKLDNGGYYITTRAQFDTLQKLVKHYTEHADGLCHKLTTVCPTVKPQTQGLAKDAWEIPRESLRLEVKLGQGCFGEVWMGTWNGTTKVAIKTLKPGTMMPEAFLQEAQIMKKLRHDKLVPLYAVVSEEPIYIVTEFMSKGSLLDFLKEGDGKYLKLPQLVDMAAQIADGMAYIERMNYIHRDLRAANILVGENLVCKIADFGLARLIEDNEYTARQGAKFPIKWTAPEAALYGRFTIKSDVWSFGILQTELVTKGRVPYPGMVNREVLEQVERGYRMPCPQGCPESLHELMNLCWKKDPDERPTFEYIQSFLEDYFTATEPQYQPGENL

Chain of Myosin-IIIa (Homo sapiens) (Q8NEV4 whole entry): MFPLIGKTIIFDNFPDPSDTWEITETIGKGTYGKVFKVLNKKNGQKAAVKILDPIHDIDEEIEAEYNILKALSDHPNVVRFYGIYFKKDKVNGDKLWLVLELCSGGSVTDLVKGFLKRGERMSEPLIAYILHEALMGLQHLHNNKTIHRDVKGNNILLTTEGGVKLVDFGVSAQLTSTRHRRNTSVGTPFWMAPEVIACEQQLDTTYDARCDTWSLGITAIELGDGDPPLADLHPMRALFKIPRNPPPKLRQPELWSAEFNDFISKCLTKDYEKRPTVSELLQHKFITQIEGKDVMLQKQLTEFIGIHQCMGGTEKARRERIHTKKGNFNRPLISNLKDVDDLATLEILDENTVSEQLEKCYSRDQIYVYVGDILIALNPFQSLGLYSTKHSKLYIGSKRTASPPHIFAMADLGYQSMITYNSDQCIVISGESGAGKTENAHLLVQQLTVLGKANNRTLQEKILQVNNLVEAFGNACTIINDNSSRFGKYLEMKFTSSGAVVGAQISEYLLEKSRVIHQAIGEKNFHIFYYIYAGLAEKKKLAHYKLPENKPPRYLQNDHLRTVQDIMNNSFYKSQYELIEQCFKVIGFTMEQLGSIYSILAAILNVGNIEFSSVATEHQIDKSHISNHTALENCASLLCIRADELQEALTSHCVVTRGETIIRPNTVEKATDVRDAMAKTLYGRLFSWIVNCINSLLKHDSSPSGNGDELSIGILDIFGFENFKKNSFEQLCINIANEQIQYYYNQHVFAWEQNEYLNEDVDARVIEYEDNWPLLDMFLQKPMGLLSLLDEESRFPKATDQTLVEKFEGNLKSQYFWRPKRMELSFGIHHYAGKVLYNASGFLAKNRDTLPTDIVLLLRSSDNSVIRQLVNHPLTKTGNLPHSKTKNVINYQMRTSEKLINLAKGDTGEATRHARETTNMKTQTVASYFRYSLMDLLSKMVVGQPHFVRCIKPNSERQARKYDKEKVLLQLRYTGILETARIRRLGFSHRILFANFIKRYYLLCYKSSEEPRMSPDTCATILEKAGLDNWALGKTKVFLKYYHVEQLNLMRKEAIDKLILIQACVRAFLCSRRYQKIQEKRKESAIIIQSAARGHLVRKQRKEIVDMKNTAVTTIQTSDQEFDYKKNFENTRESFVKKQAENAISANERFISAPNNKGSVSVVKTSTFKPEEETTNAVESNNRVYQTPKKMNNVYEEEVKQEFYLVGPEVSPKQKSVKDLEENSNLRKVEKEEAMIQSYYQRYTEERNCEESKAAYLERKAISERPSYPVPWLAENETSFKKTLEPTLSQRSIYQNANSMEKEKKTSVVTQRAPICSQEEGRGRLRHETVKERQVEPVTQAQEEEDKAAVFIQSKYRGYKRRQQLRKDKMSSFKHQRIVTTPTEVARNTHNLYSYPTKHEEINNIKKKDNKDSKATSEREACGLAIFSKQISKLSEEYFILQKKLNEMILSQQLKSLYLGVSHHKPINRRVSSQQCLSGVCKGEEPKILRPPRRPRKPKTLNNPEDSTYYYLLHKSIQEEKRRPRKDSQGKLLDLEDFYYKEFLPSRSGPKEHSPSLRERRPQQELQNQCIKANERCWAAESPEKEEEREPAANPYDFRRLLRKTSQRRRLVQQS
Chain of Serine/threonine-protein kinase MRCK alpha (Homo sapiens) (Q5VT25 whole entry): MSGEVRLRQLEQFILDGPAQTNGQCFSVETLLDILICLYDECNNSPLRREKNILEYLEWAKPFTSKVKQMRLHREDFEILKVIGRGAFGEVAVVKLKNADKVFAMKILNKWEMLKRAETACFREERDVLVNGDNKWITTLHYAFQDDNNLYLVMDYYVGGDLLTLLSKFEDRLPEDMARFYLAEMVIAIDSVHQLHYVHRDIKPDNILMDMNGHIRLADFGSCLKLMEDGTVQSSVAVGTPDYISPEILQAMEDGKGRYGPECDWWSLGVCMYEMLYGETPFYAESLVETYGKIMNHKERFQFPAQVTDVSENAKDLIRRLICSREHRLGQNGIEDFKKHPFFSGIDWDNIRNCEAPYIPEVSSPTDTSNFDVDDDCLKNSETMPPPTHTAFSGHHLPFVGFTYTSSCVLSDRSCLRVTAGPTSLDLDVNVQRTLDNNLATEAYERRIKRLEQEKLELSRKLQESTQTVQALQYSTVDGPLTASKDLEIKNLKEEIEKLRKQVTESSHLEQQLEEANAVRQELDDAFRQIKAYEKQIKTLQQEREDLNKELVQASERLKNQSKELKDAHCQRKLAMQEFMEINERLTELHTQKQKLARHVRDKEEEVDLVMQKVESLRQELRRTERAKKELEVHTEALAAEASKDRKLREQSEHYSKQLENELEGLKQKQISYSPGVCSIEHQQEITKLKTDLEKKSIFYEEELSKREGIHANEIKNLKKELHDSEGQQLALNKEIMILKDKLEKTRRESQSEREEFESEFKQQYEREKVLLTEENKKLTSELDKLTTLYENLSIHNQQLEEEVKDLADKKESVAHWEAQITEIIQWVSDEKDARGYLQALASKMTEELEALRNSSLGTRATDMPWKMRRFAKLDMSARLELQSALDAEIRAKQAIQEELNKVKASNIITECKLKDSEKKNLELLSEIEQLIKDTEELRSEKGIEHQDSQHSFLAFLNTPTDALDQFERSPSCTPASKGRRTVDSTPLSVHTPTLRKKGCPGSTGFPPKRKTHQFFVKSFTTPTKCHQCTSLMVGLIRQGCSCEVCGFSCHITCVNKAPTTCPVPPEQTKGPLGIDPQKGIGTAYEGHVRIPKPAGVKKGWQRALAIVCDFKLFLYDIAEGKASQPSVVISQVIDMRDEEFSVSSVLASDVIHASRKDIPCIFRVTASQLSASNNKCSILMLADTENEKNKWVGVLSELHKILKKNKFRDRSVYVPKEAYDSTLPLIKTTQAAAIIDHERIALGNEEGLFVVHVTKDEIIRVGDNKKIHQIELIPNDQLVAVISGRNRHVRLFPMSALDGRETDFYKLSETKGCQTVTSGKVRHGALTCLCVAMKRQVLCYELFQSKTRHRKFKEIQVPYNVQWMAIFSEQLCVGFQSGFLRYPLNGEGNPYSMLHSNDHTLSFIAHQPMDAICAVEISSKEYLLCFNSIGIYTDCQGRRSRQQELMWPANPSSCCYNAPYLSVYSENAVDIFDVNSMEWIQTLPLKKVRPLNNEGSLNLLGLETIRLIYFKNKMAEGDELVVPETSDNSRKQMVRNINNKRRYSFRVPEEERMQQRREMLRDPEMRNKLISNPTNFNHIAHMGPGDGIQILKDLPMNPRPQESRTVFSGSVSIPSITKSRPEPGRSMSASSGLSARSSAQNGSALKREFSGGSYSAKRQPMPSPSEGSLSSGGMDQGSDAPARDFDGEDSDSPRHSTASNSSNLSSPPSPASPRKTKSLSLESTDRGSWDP
Chain of Serine/threonine-protein kinase PLK1 (P53350 whole entry): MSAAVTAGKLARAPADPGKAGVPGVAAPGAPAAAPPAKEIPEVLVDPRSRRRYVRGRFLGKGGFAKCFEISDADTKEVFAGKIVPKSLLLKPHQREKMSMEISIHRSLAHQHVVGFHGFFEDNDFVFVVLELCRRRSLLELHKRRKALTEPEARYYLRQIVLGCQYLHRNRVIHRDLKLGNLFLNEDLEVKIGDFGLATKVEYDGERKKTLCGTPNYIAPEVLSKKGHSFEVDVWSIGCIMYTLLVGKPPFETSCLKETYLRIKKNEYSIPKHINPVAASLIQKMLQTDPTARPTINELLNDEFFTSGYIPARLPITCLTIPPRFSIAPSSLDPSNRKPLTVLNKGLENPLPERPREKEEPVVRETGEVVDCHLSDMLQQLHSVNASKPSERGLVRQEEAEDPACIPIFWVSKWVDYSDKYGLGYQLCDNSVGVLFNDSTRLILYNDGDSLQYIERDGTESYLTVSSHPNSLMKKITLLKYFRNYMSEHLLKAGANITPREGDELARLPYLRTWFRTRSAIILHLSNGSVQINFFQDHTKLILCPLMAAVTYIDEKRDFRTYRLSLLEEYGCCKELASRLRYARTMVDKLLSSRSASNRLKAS

Nc1cnc(N2CCc3cc(S(=O)(=O)Nc4c(F)cc(Cl)cc4F)cc(N4CCCC4=O)c32)nc1 [TP-020n]
% of control [1]: 93%

CN(C)CCCOc1ccc(-c2cc(NCCCn3cccn3)nc(S(C)(=O)=O)n2)cc1
dTM [2]: < 2 K

CCc1cccc(CC)c1NC(=O)c1nn(C)c2c1CCc1cnc(Nc3ccc(C(=O)NC4CCN(C)CC4)cc3OC(F)(F)F)nc1-2
IC50 [3]: > 10 µM

CC[C@@H]1[C@H](F)C(=O)N[C@@H]1COc1nccc2cc(C(N)=O)c(OC)cc12 [ZIMLOVISERTIB]
% of inhibition ([4]; at 0.01 µM): -4.4% | % of inhibition ([4]; at 0.04 µM): 6% | % of inhibition ([4]; at 0.2 µM): -3.6% | % of inhibition ([4]; at 1 µM): 7.4% | % of inhibition ([4]; at 5 µM): 20.3%

C=CC(=O)Nc1cc(-n2c(=O)ccc3cnc4ccc(-c5ccc(NS(C)(=O)=O)cc5)cc4c32)ccc1C
% of control ([5]; at 1 µM): 100% | % of control ([5]; at 10 µM): 85%

O[C@H]1CC[C@H](Nc2ncc3nc(Nc4c(F)cc(F)cc4F)n([C@H]4CCOC4)c3n2)CC1
% of control [6]: 100%

N#Cc1cccc(-c2c[nH]c3ncnc(N4CCOCC4)c23)c1
% of control [7]: 100% | % of control [8]: 95%
